Measured values: US20230301300A1, “HERBICIDAL COMPOSITIONS” (SYNGENTA CROP PROTECTION AG, priority 2020, published 2023)

Legend:
Type in all cases: in vivo
[1] = test system: Amaranthus retoflexus (AMARE); test: B1 Post-Emergence Efficacy - Test 1; conditions: 1000 g/ha, after 13 days, five point scale
Method: (§1) Seeds of a variety of test species are sown in standard soil in pots:— Solanum nigrum (SOLNI), Amaranthus retoflexus (AMARE), Setaria faberi (SETFA), Alopecurus myosuroides (ALOMY), Echinochloa crus-galli (ECHCG), Ipomoea hederacea (IPOHE), Lolium perenne (LOLPE). After 8 days cultivation (post-emergence) under controlled conditions in a glasshouse (at 24/16° C., day/night; 14 hours light; 65% humidity), the plants are sprayed with an aqueous spray solution derived from the formulation of the technical active ingredient in acetone/water (50:50) solution containing 0.5% Tween 20 (polyoxyethylene sorbitan monolaurate, CAS RN 9005-64-5). Compounds are applied at 1000 g/ha. The test plants are then grown in a glasshouse under controlled conditions in a glasshouse (at 24/16° C., day/night; 14 hours light; 65% humidity) and watered twice daily. After 13 days, the test is evaluated for the percentage damage caused to the plant. The biological activities are assessed on a five point scale (5=80-100%; 4=60-79%; 3=40-59%; 2=20-39%; 1=0-19%). A blank value in the table is indicative that the compound was not tested on that species.

[2] = test system: Echinochloa crus-galli (ECHCG); test: B1 Post-Emergence Efficacy - Test 1; conditions: 1000 g/ha, after 13 days, five point scale
Method: as §1

[3] = test system: Ipomoea hederacea (IPOHE); test: B1 Post-Emergence Efficacy - Test 1; conditions: 1000 g/ha, after 13 days, five point scale
Method: as §1

Lolium perenne (LOLPE) = test: B1 Post-Emergence Efficacy - Test 1; conditions: 1000 g/ha, after 13 days, five point scale
Method: as §1

Setaria faberi (SETFA) [4] = test: B1 Post-Emergence Efficacy - Test 1; conditions: 1000 g/ha, after 13 days, five point scale
Method: as §1

Solanum nigrum (SOLNI) = test: B1 Post-Emergence Efficacy - Test 1; conditions: 1000 g/ha, after 13 days, five point scale
Method: as §1

[5] = test system: Abutilon theophrasti (ABUTH); test: B2 Post-Emergence Efficacy - Test 2; conditions: 15 days after application, 0-100 scale
Method: (§2) Seeds of a variety of test species (see Table B1) were sown in standard soil in pots. After cultivation for 12 days (post-emergence) under controlled conditions in a glasshouse (at 24/18° C. or 20/16° C., at day/night; 16 hours light; 65% humidity), the plants were sprayed with an aqueous spray solution derived from the formulation of the technical active ingredient dissolved in IF50 (see Table B2 for composition) and adjuvant (Genapol X080) was added to the spray solution at a rate of 0.2% v/v.
(§3) After application, the test plants were grown in a glasshouse under controlled conditions (as above) and watered twice daily. Herbicidal activity was evaluated 15 days after application on a 0-100 scale. The results, where 0=no damage to test plant and 100=total kill of test plant are shown below in Tables 8 to 11.

[6] = test system: Amaranthus retroflexus (AMARE); test: B2 Post-Emergence Efficacy - Test 2; conditions: 15 days after application, 0-100 scale
Method: as §2, §3

Avena fatua (AVEFA) = test: B2 Post-Emergence Efficacy - Test 2; conditions: 15 days after application, 0-100 scale
Method: as §2, §3

[7] = test system: Brachiaria plantaginea (BRAPL); test: B2 Post-Emergence Efficacy - Test 2; conditions: 15 days after application, 0=no damage, 100=total kill
Method: as §2, §3

[8] = test system: Echinochloa crus galli (ECHCG); test: B2 Post-Emergence Efficacy - Test 2; conditions: 15 days after application, 0=no damage, 100=total kill
Method: as §2, §3

Glycine max (GLXMA) = test: B2 Post-Emergence Efficacy - Test 2; conditions: 15 days after application; for Herbicidal activity GLXMA: 0-100 scale; for Herbicidal activity on a 0-100 scale, GLXMA: 0=no damage, 100=total kill
Method: as §2, §3

Hordeum vulgare (HORVW) = test: B2 Post-Emergence Efficacy - Test 2; conditions: 15 days after application, 0-100 scale
Method: as §2, §3

[9] = test system: Ipomoea hederacea (IPOHE); test: B2 Post-Emergence Efficacy - Test 2; conditions: 15 days after application, 0-100 scale
Method: as §2, §3

Orysa sativa (ORYSA) = test: B2 Post-Emergence Efficacy - Test 2; conditions: 15 days after application; for Herbicidal activity ORYSA: 0-100 scale; for Herbicidal activity on a 0-100 scale, ORYSA: 0=no damage, 100=total kill
Method: as §2, §3

Setaria faberi (SETFA) [10] = test: B2 Post-Emergence Efficacy - Test 2; conditions: 15 days after application, 0=no damage, 100=total kill
Method: as §2, §3

Sinapis arvensis (SINAR) = test: B2 Post-Emergence Efficacy - Test 2; conditions: 15 days after application, 0-100 scale
Method: as §2, §3

SMILES: Cc1nn(C)c(=O)c(-c2c(F)ccc(Cl)c2CCc2ccc(C#N)cc2)c1O [Compound 1.024, 4-[3-chloro-6-fluoro-2-[2-[4-(cyano)phenyl]ethyl]phenyl]-5-hydroxy-2,6-dimethyl-pyridazin-3-one]
- percentage damage caused to the plant, AMARE [1]: 5 (5=80-100%)
- percentage damage caused to the plant, ECHCG [2]: 5 (5=80-100%)
- percentage damage caused to the plant, IPOHE [3]: 5 (5=80-100%)
- percentage damage caused to the plant, LOLPE (Lolium perenne (LOLPE)): 5 (5=80-100%)
- percentage damage caused to the plant, SETFA (Setaria faberi (SETFA) [4]): 5 (5=80-100%)
- percentage damage caused to the plant, SOLNI (Solanum nigrum (SOLNI)): 5 (5=80-100%)
- Herbicidal activity ABUTH ([5]; 15 g/Ha): 90
- Herbicidal activity ABUTH ([5]; 30 g/Ha): 90
- Herbicidal activity ABUTH ([5]; 60 g/Ha): 100
- Herbicidal activity ABUTH ([5]; 125 g/Ha): 100
- Herbicidal activity ABUTH ([5]; 250 g/Ha): 100
- Herbicidal activity ABUTH ([5]; 500 g/Ha): 100
- Herbicidal activity AMARE ([6]; 15 g/Ha): 80
- Herbicidal activity AMARE ([6]; 30 g/Ha): 90
- Herbicidal activity AMARE ([6]; 60 g/Ha): 90
- Herbicidal activity AMARE ([6]; 125 g/Ha): 100
- Herbicidal activity AMARE ([6]; 250 g/Ha): 100
- Herbicidal activity AMARE ([6]; 500 g/Ha): 100
- Herbicidal activity AVEFA (Avena fatua (AVEFA); 15 g/Ha): 10
- Herbicidal activity AVEFA (Avena fatua (AVEFA); 30 g/Ha): 20
- Herbicidal activity AVEFA (Avena fatua (AVEFA); 60 g/Ha): 30
- Herbicidal activity AVEFA (Avena fatua (AVEFA); 125 g/Ha): 60
- Herbicidal activity AVEFA (Avena fatua (AVEFA); 250 g/Ha): 70
- Herbicidal activity AVEFA (Avena fatua (AVEFA); 500 g/Ha): 80
- Herbicidal activity on a 0-100 scale, BRAPL ([7]; 15 g/Ha): 30
- Herbicidal activity on a 0-100 scale, BRAPL ([7]; 30 g/Ha): 60
- Herbicidal activity on a 0-100 scale, BRAPL ([7]; 60 g/Ha): 70
- Herbicidal activity on a 0-100 scale, BRAPL ([7]; 125 g/Ha): 70
- Herbicidal activity on a 0-100 scale, BRAPL ([7]; 250 g/Ha): 70
- Herbicidal activity on a 0-100 scale, BRAPL ([7]; 500 g/Ha): 90
- Herbicidal activity on a 0-100 scale, ECHCG ([8]; 15 g/Ha): 70
- Herbicidal activity on a 0-100 scale, ECHCG ([8]; 30 g/Ha): 80
- Herbicidal activity on a 0-100 scale, ECHCG ([8]; 60 g/Ha): 80
- Herbicidal activity on a 0-100 scale, ECHCG ([8]; 125 g/Ha): 90
- Herbicidal activity on a 0-100 scale, ECHCG ([8]; 250 g/Ha): 90
- Herbicidal activity on a 0-100 scale, ECHCG ([8]; 500 g/Ha): 100
- Herbicidal activity GLXMA (Glycine max (GLXMA); 15 g/Ha): 70
- Herbicidal activity on a 0-100 scale, GLXMA (Glycine max (GLXMA); 15 g/Ha): 70
- Herbicidal activity GLXMA (Glycine max (GLXMA); 30 g/Ha): 80
- Herbicidal activity on a 0-100 scale, GLXMA (Glycine max (GLXMA); 30 g/Ha): 80
- Herbicidal activity GLXMA (Glycine max (GLXMA); 60 g/Ha): 90
- Herbicidal activity on a 0-100 scale, GLXMA (Glycine max (GLXMA); 60 g/Ha): 90
- Herbicidal activity GLXMA (Glycine max (GLXMA); 125 g/Ha): 90
- Herbicidal activity on a 0-100 scale, GLXMA (Glycine max (GLXMA); 125 g/Ha): 90
- Herbicidal activity GLXMA (Glycine max (GLXMA); 250 g/Ha): 100
- Herbicidal activity on a 0-100 scale, GLXMA (Glycine max (GLXMA); 250 g/Ha): 100
- Herbicidal activity GLXMA (Glycine max (GLXMA); 500 g/Ha): 100
- Herbicidal activity on a 0-100 scale, GLXMA (Glycine max (GLXMA); 500 g/Ha): 100
- Herbicidal activity HORVW (Hordeum vulgare (HORVW); 15 g/Ha): 0
- Herbicidal activity HORVW (Hordeum vulgare (HORVW); 30 g/Ha): 10
- Herbicidal activity HORVW (Hordeum vulgare (HORVW); 60 g/Ha): 10
- Herbicidal activity HORVW (Hordeum vulgare (HORVW); 125 g/Ha): 10
- Herbicidal activity HORVW (Hordeum vulgare (HORVW); 250 g/Ha): 10
- Herbicidal activity HORVW (Hordeum vulgare (HORVW); 500 g/Ha): 20
- Herbicidal activity IPOHE ([9]; 30 g/Ha): 100
- Herbicidal activity IPOHE ([9]; 60 g/Ha): 100
- Herbicidal activity IPOHE ([9]; 125 g/Ha): 100
- Herbicidal activity IPOHE ([9]; 250 g/Ha): 100
- Herbicidal activity IPOHE ([9]; 500 g/Ha): 100
- Herbicidal activity ORYSA (Orysa sativa (ORYSA); 15 g/Ha): 0
- Herbicidal activity on a 0-100 scale, ORYSA (Orysa sativa (ORYSA); 15 g/Ha): 0
- Herbicidal activity ORYSA (Orysa sativa (ORYSA); 30 g/Ha): 0
- Herbicidal activity on a 0-100 scale, ORYSA (Orysa sativa (ORYSA); 30 g/Ha): 0
- Herbicidal activity ORYSA (Orysa sativa (ORYSA); 60 g/Ha): 0
- Herbicidal activity on a 0-100 scale, ORYSA (Orysa sativa (ORYSA); 60 g/Ha): 0
- Herbicidal activity ORYSA (Orysa sativa (ORYSA); 125 g/Ha): 0
- Herbicidal activity on a 0-100 scale, ORYSA (Orysa sativa (ORYSA); 125 g/Ha): 0
- Herbicidal activity ORYSA (Orysa sativa (ORYSA); 250 g/Ha): 20
- Herbicidal activity on a 0-100 scale, ORYSA (Orysa sativa (ORYSA); 250 g/Ha): 20
- Herbicidal activity ORYSA (Orysa sativa (ORYSA); 500 g/Ha): 40
- Herbicidal activity on a 0-100 scale, ORYSA (Orysa sativa (ORYSA); 500 g/Ha): 40
- Herbicidal activity on a 0-100 scale, SETFA (Setaria faberi (SETFA) [10]; 15 g/Ha): 20
- Herbicidal activity on a 0-100 scale, SETFA (Setaria faberi (SETFA) [10]; 30 g/Ha): 70
- Herbicidal activity on a 0-100 scale, SETFA (Setaria faberi (SETFA) [10]; 60 g/Ha): 80
- Herbicidal activity on a 0-100 scale, SETFA (Setaria faberi (SETFA) [10]; 125 g/Ha): 90
- Herbicidal activity on a 0-100 scale, SETFA (Setaria faberi (SETFA) [10]; 250 g/Ha): 90
- Herbicidal activity on a 0-100 scale, SETFA (Setaria faberi (SETFA) [10]; 500 g/Ha): 100
- Herbicidal activity SINAR (Sinapis arvensis (SINAR); 15 g/Ha): 80
- Herbicidal activity SINAR (Sinapis arvensis (SINAR); 30 g/Ha): 80
- Herbicidal activity SINAR (Sinapis arvensis (SINAR); 60 g/Ha): 80
- Herbicidal activity SINAR (Sinapis arvensis (SINAR); 250 g/Ha): 90
- Herbicidal activity SINAR (Sinapis arvensis (SINAR); 500 g/Ha): 100
